The test system of series [1] is Chinese hamster ovary (CHO) cells. Kind of series: In vitro genotoxicity screen in CHO cells. The class given is cell-based. To be noted: approximately 3 hours exposure in the dark, dilutions 1-1000 μg/ml. An excerpt:
The positive control was methylmethane sulfonate.
Coverslips were mounted with Permount.

A further series concerns R17. Nature of the series: R17 bacteriophage inactivation assay (r-17 screen). The class given is cell-based, bacteriophage R17 (grown in Hfr 3000 bacteria). The method, then: An r-17 bacteriophage assay was used in this example to predict pathogen inactivation efficiency and to determine nucleic acid binding of the photoreactive binding compounds of the present invention. In the r-17 assay, the bacteriophage was placed in a solution with each compound tested and was then irradiated. The ability of the phage to subsequently infect bacteria and inhibit their growth was measured. The bacteriophage was selected for its relatively accessible nucleic acid such that the culture growth inhibition would accurately reflect nucleic acid damage by the test compounds. The bacteriophage assay for nucleic acid binding to test compounds offers a safe and inexpensive procedure to identify compounds likely to display efficient pathogen inactivation.
The R17 was grown up in Hfr 3000 bacteria, approximate titer 5 ×10^11. (R17 and Hfr 3000 were obtained from American Tissue Culture Collection (ATCC), Washington, D.C.) The R17 phage stock was added to a solution of 15% fetal bovine serum in Dulbecco's Modified Eagles Medium (DMEM) to a final phage concentration of 10^9/mL. An aliquot (0.5 mL) was transferred to a 1.5 mL snap-top polyethylene tube. An aliquot (0.004-0.040 mL) of the test compound stock solution prepared in water, ethanol or dimethylsulfoxide at 0.80-8.0 mM was added to the tube. Compounds were tested at concentrations between 4 μM and 320 μM. […] The tubes were placed in a light device as described in EXAMPLE 1 and irradiated for between 1 and 10 minutes. Sterile 13 mL dilution tubes were prepared; each test compound required one tube with 0.4 mL of Luria broth (LB) and five tubes containing 0.5 mL of LB broth. To make the dilutions, a 0.100 mL aliquot of the irradiated solution of phage and test compound was added to the first dilution tube of 0.4 mL of media then 0.020 mL of this solution was added to the second tube of 0.5 mL medium (1:25). The second solution was then diluted serially (1:25) into the remaining tubes. To each diluted sample was added 0.050 mL of Hfr 3000 bacteria cultured overnight and 3 mL of molten LB top agar and the mixed materials were poured onto LB broth plates. After the top agar hardened, the plates were incubated at 37° C. overnight. The plaque forming units were then counted the following morning and the titer of the phage remaining after phototreatment was calculated based on the dilution factors.
The following controls were run: the “phage only” in which phage was not treated with test compound and not irradiated (listed as “starting titer” in the tables below); the “UV only” in which the phage was irradiated in the absence of test compound; and the “dark” control in which the phage/test compound solution was not irradiated before it was diluted and plated.
Compounds of the present invention were also tested at a constant concentration for varying doses of UV light. Three sets of 1.5 mL tubes were prepared containing 0.6 mL aliquots of R17 in DMEM (prepared as described above). The compound tested was added at the desired concentration and the samples were vortexed. The samples were then irradiated at intervals of 1.0 J/cm^2, until 3.0 J/cm^2 was reached. Between each 1.0 J/cm^2 interval, 100 μL was removed from each sample and placed in the first corresponding dilution tube, then five sequential dilutions were performed for each compound tested, at all 3 irradiation doses, as described above in this example.
Then 50 μL of Hfr 3000 bacteria was added to each tube, 3 mL of top agar was added and the tube contents were vortexed. The contents of each tube was poured into its own LB plate and the plates were incubated overnight at 37° C. Plaques were counted by visual inspection the following morning.

Series [2] concerns Salmonella typhimurium TA100. An excerpt: (§1) The second property that is important in testing a compound for use in methods of the present invention is mutagenicity. The most widely used mutagen/carcinogen screening assay is the Ames test. This assay is described by D. M. Maron and B. N. Ames in Mutation Research 113: 173 ( 1983) and a specific screen is described in detail in Example 17, below. The Ames test utilizes several unique strains of Salmonella typhimurium that are histidine- dependent for growth and that lack the usual DNA repair enzymes. The frequency of normal mutations that render the bacteria independent of histidine (i.e., the frequency of spontaneous revertants) is low. The test allows one to evaluate the impact of a compound on this revertant frequency.
(§2) In this example the compounds of the present invention are tested for their dark mutagenicity using an Ames assay. The procedures used for the Salmonella mutagenicity test as described in detail by Maron and Ames were followed exactly. Maron, D. M. and B. N. Ames, Mutation Research 113: 173 ( 1983). A brief description for each procedure is given here. The tester strains TA97a, TA98, TA100, TA102, TA1537 and TA1538 were obtained from Dr. Ames. TA97a, TA98, TA1537 and TA1538 are frameshift tester strains. TA100 and TA102 are base-substitution tester strains. Upon receipt each strain was cultured under a variety of conditions to confirm the genotypes specific to the strains.
(§3) The first tests done with the strains were to determine the range of spontaneous reversion for each of the strains. With each mutagenicity experiment the spontaneous reversion of the tester strains to histidine independence was measured and expressed as the number of spontaneous revertants per plate. This served as the background controls.
(§4) For all experiments, the pre-incubation procedure was used. In this procedure one vial of each tester strain was thawed and 20 μL of this culture was added to 6 mL of Oxoid Nutrient Broth #2. This solution was allowed to shake for 10 hours at 37° C. In the pre-incubation procedure, 0.1 mL of this overnight culture was added to each of the required number of sterile test tubes. To half of the tubes 0.5 mL of a 10% S-9 solution containing Aroclor 1254 induced rat liver extract (Molecular Toxicology Inc., Annapolis, Md.), and MgCl2, KCl, glucose-6-phosphate, NADP, and sodium phosphate buffer (Sigma, St. Louis, Mo.) were added. To the other half of the tubes 0.5 mL of 0.2M sodium phospate buffer, pH 7.4, was used in place of the S-9 mixture (the -S9 samples). Finally 0.1 mL of the test solution containing either 0, 0.1, 0.5, 1, 5, 10, 50, 100, 250, or 500 μg/mL of the test compound was added. The 0.7 mL mixture was vortexed and then pre-incubated while shaking for 20 minutes at 37° C. After shaking, 2 mL of molten top agar supplemented with histidine and biotin were added to the 0.7 mL mixture and immediately poured onto a minimal glucose agar plate (volume of base agar was 20 mL). The top agar was allowed 30 minutes to solidify and then the plates were inverted and incubated for 44 hours at 37° C. After incubation the number of revertant colonies on each plate were counted. […] (“n” represents the number of replicates performed for each data point.)
(§5) Maron and Ames (1983) describe the conflicting views with regard to the statisical treatment of data generated from the test.

Series [3] relates to Salmonella typhimurium TA1538. Nature of the series: Ames assay (dark mutagenicity), strain TA1538.
Excerpt: as §1, §2, §3, §4, §5
(In general: In the Ames test, an excess of revertant colonies over the control signals mutagenicity.)

Series [4] concerns Salmonella tester strains TA97a, TA98, TA100, TA102, TA1537 and TA1538. Kind of series: Ames assay, overall assessment over the tester strains. To be noted: strains tested: TA100 and TA1538, ±S9, 5 and 10 μg/plate.
Excerpt: as §1, §2, §3
For all experiments, the pre-incubation procedure was used. In this procedure one vial of each tester strain was thawed and 20 μL of this culture was added to 6 mL of Oxoid Nutrient Broth #2. This solution was allowed to shake for 10 hours at 37° C. In the pre-incubation procedure, 0.1 mL of this overnight culture was added to each of the required number of sterile test tubes. To half of the tubes 0.5 mL of a 10% S-9 solution containing Aroclor 1254 induced rat liver extract (Molecular Toxicology Inc., Annapolis, Md.), and MgCl2, KCl, glucose-6-phosphate, NADP, and sodium phosphate buffer (Sigma, St. Louis, Mo.) were added. To the other half of the tubes 0.5 mL of 0.2M sodium phospate buffer, pH 7.4, was used in place of the S-9 mixture (the -S9 samples). Finally 0.1 mL of the test solution containing either 0, 0.1, 0.5, 1, 5, 10, 50, 100, 250, or 500 μg/mL of the test compound was added. […] After incubation the number of revertant colonies on each plate were counted. […]

The test system of series [5] is Salmonella typhimurium TA102. Kind of series: Ames assay (dark mutagenicity), strain TA102. To be noted: TA102 at 500 μg/plate.
Excerpt: as §1, §2, §3, §4, §5

The subject of series [6] is Duck Hepatitis B Virus (DHBV). Kind of series: Inactivation of DHBV in platelet concentrate, PCR amplification readout. To be noted: 5J/CM^2 UVA. The method, then:
This example describes the protocol for inactivation of Duck Hepatitis B Virus (DHBV), a model for Hepatitis B Virus, using compounds of the present invention. DHBV in duck yolk was added to platelet concentrate (PC) to a final concentration of 2×10^7 particles per mL and mixed by gentle rocking for ≧15 min. […] Samples, including controls without added psoralen, were irradiated with 5J/CM^2 UVA, with mixing at 1 J/cm^2 increments. After irradiation, leukocytes and platelets were separated from virus by centrifugation. […] Samples were extracted with phenol-chloroform and chloroform, followed by ethanol precipitation. […] PCR amplicons were generated using primers pairs DCD03/DCD05 (127 bp), DCD03/DCD06 (327 bp) and DCD03/DCD07 (1072 bp). PCR was performed in a standard PCR buffer containing 0.2 mM each deoxyribonucleoside 5′-triphosphates (dATP, dGTP, dCTP, and dTTP), […], and 0.5 units Taq polymerase per […]. 30 cycles of amplification were performed with the following thermal profile: 95° C. 30 sec, 60° C. 30 sec, 72° C. 1 min. The amplification was followed by a 7 min incubation at 72° C. to yield full length products. […] was added at an amount of […] in order to detect and quantify the resulting products. Products were separated by electrophoresis on denaturing polyacrylamide slab gels and counted. The absence of signal in a given reaction was taken to indicate effective inactivation of DHBV.

Structures are written as SMILES. Read-outs that look alike come from different tables or passages of the source.

For the molecule `Cc1oc2c(CN)c3oc(=O)cc(C)c3cc2c1C` [8-aminomethyl-4,4′, 5′-trimethylpsoralen, reference compound], the “genotoxic (toxic) concentration” value in series [1] is 10 µg/mL.
Consider `Cc1oc2c(C)c3oc(=O)cc(C)c3cc2c1CNCCN` [Compound 1, 4′-(4-amino-2-aza)butyl-4,5′,8-trimethylpsoralen], for which the “R17 inactivation efficiency compared with 8-MOP” value with R17 (32 μM, 1 minute irradiation) is “much higher R17 inactivation efficiency than does 8-MOP”. The “LOG TITER” value was less than 1 log in the series with R17 (experiment 1, 32 μM cmpd, 1′ uva, phage only titer 7.7); less than 1 log with R17 (experiment 1, 32 μM cmpd, 10′ uva, phage only titer 7.7); 7.6 log with R17 (experiment 1, compound only (32 μM), no uva, phage only titer 7.7); 6.9 log with R17 (experiment 2, 3.2 μM cmpd, 1′ uva, phage only titer 7.8); 6.1 log in the series on R17 (experiment 2, 3.2 μM cmpd, 10′ uva, phage only titer 7.8); 7.7 log in the series on R17 (experiment 2, compound only (3.2 μM), no uva, phage only titer 7.8). The “LOG TITER” value is given as 6.3 log in the series with R17 (experiment 3, 4 μM cmpd, 1′ uva, phage only titer 7.3); 5.6 log in the series on R17 (experiment 3, 8 μM cmpd, 1′ uva, phage only titer 7.3); 3.9 log in the series with R17 (experiment 3, 16 μM cmpd, 1′ uva, phage only titer 7.3); 7.3 log in the series on R17 (experiment 3, compound only (16 μM), no uva, phage only titer 7.3). For the same molecule, the revertants per plate in series [2] (TA100 +S9, 5 μg/plate) was −24; in series [2] (TA100 +S9, 10 μg/plate), −22; in series [3] (TA1538 −S9, 5 μg/plate) it was 10; in series [3] (TA1538 −S9, 10 μg/plate), 12. Besides, the “mutation in the TA100 strain” value in series [2] (TA100, with and without S9) is “displayed mutation in the TA100 strain, but only in the absence of S9”. The mutagenic response detected result in series [3] (TA1538 at 5 μg/plate in the presence of S9) is recorded as “weak frameshift mutagen”.
Regarding `Cc1oc2c(C)c3oc(=O)cc(C)c3cc2c1COCCCN` [Compound 4, 4′-(5-amino-2-oxa)pentyl-4,5′,8-trimethylpsoralen], the revertants per plate in series [2] (TA100 +S9, 5 μg/plate) is recorded as −10; in series [2] (TA100 +S9, 10 μg/plate), −3; in series [3] (TA1538 −S9, 5 μg/plate), −2; in series [3] (TA1538 −S9, 10 μg/plate) it was −2. Besides, in series [4], the “mutagenicity (overall)” value is listed as “no mutagenicity”.
As to `COc1c2occc2cc2ccc(=O)oc12` [Compound 8-MOP, 8-Methoxypsoralen], in series [5], the mutagenic response detected entry was “weak base-substitution mutagen”.
`Cc1oc2c(C)c3oc(=O)cc(C)c3cc2c1COCCN` [Compound S-59]: the “PCR amplification of the 1072 bp DHBV amplicon” value in series [6] (all concentrations (35, 70, and 100 mM)) is given as “complete inhibition of PCR”. For the same molecule, the “inhibition of PCR of the smaller DHBV amplicons (127 bp, 327 bp) compared with AMT” value in series [6] (same concentrations) is “inhibited PCR of the smaller amplicons better than did AMT”.

The record behind these values is patent US6469052B2, “Compounds for the photodecontamination of pathogens in blood” (Cerus Corporation, priority 1993, dated 2002).
